Reference: PMC12476894, “Identification of α‑Azacyclic Acetamide-Based Inhibitors of P. falciparum Na^+ Pump (PfATP4) with Fast-Killing Asexual Blood-Stage Antimalarial Activity by Phenotypic Screening” (ACS Infectious Diseases, 2025)
≈ marks a conversion by molar mass, not a printed value. Like-named read-outs stand apart in the source and are kept apart here.

Experiments:
[1] = tested on: P. falciparum 3D7 parasites (Pf3D7); experiment: 72 h SYBR Green growth inhibition, ABS P. falciparum 3D7 (Phillips Lab); format: cell-based, Plasmodium falciparum; conditions: Plasmodium falciparum, 3D7; 72 h SYBR Green assay; mean ± SEM (n)
[2] = tested on: P. falciparum Dd2 (PfDd2) parasites; experiment: 72 h SYBR Green growth inhibition, ABS P. falciparum Dd2 (Phillips Lab); format: cell-based, Plasmodium falciparum; conditions: Plasmodium falciparum
[3] = tested on: P. falciparum NF54^luc parasites; experiment: 72 h SYBR Green growth inhibition, PfNF54^luc; format: cell-based; conditions: Plasmodium falciparum, 72 h SYBR Green assay, read-out: PfNF54^luc EC50
[4] = Human HepG2 cytotoxicity assay (CellTiter Glo); format: cell-based; conditions: HepG2 cells
[5] = tested on: PfDd2 parasites, 2- or 3-selected bulk cultures; experiment: EC50 of bulk cultures after rounds of resistance selection; format: cell-based; conditions: Plasmodium falciparum, read-out: bulk culture EC50
Method: (§1) To confirm the MOA for the α-azacyclic acetamides against P. falciparum and to obtain potential information about whether or not they bind PfATP4 at an overlapping site with that of KAE609, we undertook resistance selections using PfDd2 parasites using the published cycling drug selection method. , α-Azacyclic acetamides 2 and 3 were chosen as representative examples of the pyrrole- and indole-based series, respectively. […] Additional cycles were performed at 20 × EC50, until resistant parasites were detected based on a fold change in EC50 compared to the parental clonal Dd2 line (Table S3). Resistant parasites were detected in the 2-selections in all 4 flasks after 4 pulses and for 3-selections in 3 flasks after 5 pulses. Clonal lines were generated from each flask, and one clone per flask was selected for WGS and EC50 determination (Tables S4 and S5). WGS analysis identified two single point mutations in PfATP4 that were not present in the original clonal Dd2 parasite line (Tables and S4). P412L was found in three of four flasks containing 2-selected resistance clones, and F917L was identified in all three flasks containing 3-selected clones and in the fourth flask containing 2-selected clones (Table S4). PfATP4 mutations identified by the WGS analysis in parasite lines were verified by PCR of the pfatp4 gene, followed by Sanger sequencing (Figures S5, S6 and Table S6). An additional protein coding gene (ribosomal protein S8e) was mutated in the 2-selections. However, this mutation was identified in only one of four sequenced clones and is therefore unlikely to be related to resistance to 2 (Figure S7). All three resistant clones derived from the 3-selections harbored an identical mutation in a gene (pfcpu) encoding a conserved protein of unknown function, which was absent in the parental line (Figure S8).
(§2) Resistant Dd2 parasites were selected using a high-pressure intermittent selection protocol using a previously described method. Selections were set up using 4 flasks per compound starting with approximately 3 × 10^9 parasites per flask (80 mL per flask, 4% hematocrit, 3% parasitemia at the beginning of each pulse, mostly ring-stage parasites via previous sorbitol synchronization. Pulse 1 and 2 (48 h) were conducted at 10xEC50, and subsequent pulses were conducted at 20xEC50. Parasites cleared within 48 h under these conditions. 3-Selections used a total of 4 pulses, while 2-selections required 5 pulses before resistant parasites emerged (Table S3). Culture media was replenished daily for a week after each pulse, then every 2 days with weekly replenishment of blood. Cultures were monitored by microscopy until recrudescence. Clonal parasites were obtained from each flask by limiting dilution and maintained in drug free RPMI-1640 media prior to being analyzed for EC50 shifts. Established clonal lines were aliquoted and stored at −80 °C after suspension in Glycerolyte 57 solution (Baxter Cat no 4A7831).

[6] = tested on: Dd2-B2 (PfATP4^WT); experiment: Drug susceptibility assay for cross-resistance profiling (Fidock Lab), parental line; format: cell-based, Plasmodium falciparum; conditions: Plasmodium falciparum, DD2, 72 h, read-out: EC50, Dd2-B2
[7] = tested on: Dd2^L350H (PfATP4^L350H); experiment: Drug susceptibility assay for cross-resistance profiling (Fidock Lab), L350H; format: cell-based, Plasmodium falciparum; conditions: Table 3 data set; for EC50: Plasmodium falciparum, DD2, 15-selected line
[8] = tested on: Dd2^P412L (PfATP4^P412L); experiment: Drug susceptibility assay for cross-resistance profiling (Fidock Lab), P412L; format: cell-based, Plasmodium falciparum; conditions: Table 3 data set; for EC50: Plasmodium falciparum, DD2, 15-selected line
[9] = tested on: PfDd2 parasites; experiment: Resistance selection by drug pulses, time to recrudescence; format: cell-based, Plasmodium falciparum
Method: as §1, §2

[10] = physchem; conditions: kinetic from dmso stock
[11] = tested on: Pf3D7 trophozoites, pHcyt (PfATP4 and other plasma membrane transporters); experiment: P. falciparum pH fingerprint assay; conditions: 5 μM, compared with KAE609 50 nM
[12] = tested on: Pf3D7 trophozoite-stage parasites, cytosolic pH (pHcyt); cell-based assay for ATP4 inhibition; experiment: P. falciparum cytosolic dose response pH assay (BCECF, with concanamycin A); conditions: Plasmodium falciparum, read-out: Pf3D7 pH EC50
[13] = DD2, 72 h, read-out: PfDd2 EC50

Row | Structure (SMILES) | EC50 [1] [nM] | EC50 [2, 13] [nM] | EC50 [3] [nM] | CC50 at 96 h [4] [nM] | EC50 [6] [nM] | EC50 [7] [nM] | EC50 fold-change vs Dd2-B2, Dd2^L350H [7] [fold] | EC50 [8] [nM] | EC50 fold-change vs Dd2-B2, Dd2^P412L [8] [fold] | Time to Recrudescence ([9]; Pulse 1, 10×EC50, Flasks #1-4) [days] | Time to Recrudescence ([9]; Pulse 2, 10×EC50, Flasks #1-4) [days] | Time to Recrudescence ([9]; Pulse 3, 20×EC50, Flasks #1-4) [days] | solubility ([10]; pH 2, simulated gastric fluid) [µM] | solubility ([10]; pH 6.5, aqueous buffer) [µM] | pH fingerprint, +Glucose + CMA condition (in words) [11] | EC50 [12] [nM] | further results
1 | Cc1ccnc(NC(=O)Cn2cccc2-c2nc(-c3ccccc3)cs2)c1 [compound 2, N-(4-methylpyridin-2-yl)-2-(2-(4-phenylthiazol-2-yl)-1H-pyrrol-1-yl)acetamide] | 830 ± 71 | 830 ± 48 | 720 ± 19 | > 50000 | 380 ± 31 | 1600 ± 160 | 4.2 | 34000 ± 1300 | 89 | 8 | 6 | 7 | 99 (≈ 37.1 µg/mL) | 3.2 (≈ 1.2 µg/mL) | maximal/near-maximal inhibition of PfATP4 | 1600 ± 950 | EC50 ([2]; DD2, read-out: EC50, Dd2 Parent (clone B8)): 780 nM; EC50 ([5]; 2-selected Flask 1, after Pulse 3 (20×EC50)): 570 nM; EC50 ([5]; 2-selected Flask 1, after Pulse 4 (20×EC50)): 8400 nM; EC50 ([5]; 2-selected Flask 2, after Pulse 3 (20×EC50)): 580 nM; EC50 ([5]; 2-selected Flask 2, after Pulse 4 (20×EC50)): > 10000 nM; EC50 ([5]; 2-selected Flask 3, after Pulse 3 (20×EC50)): 1100 nM; EC50 ([5]; 2-selected Flask 3, after Pulse 4 (20×EC50)): > 10000 nM; EC50 ([5]; 2-selected Flask 4, after Pulse 3 (20×EC50)): 810 nM; EC50 ([5]; 2-selected Flask 4, after Pulse 4 (20×EC50)): 6600 nM; Time to Recrudescence ([9]; Pulse 4, 20×EC50, Flasks #1-4): 3 days; Time to Recrudescence ([9]; Pulse 5, 20×EC50, Flasks #1-4, after pulse): 2 days
2 | Cc1nn(CCNC(=O)Cn2c(C)c(C#N)c3ccccc32)c(C)c1Cl [compound 3, N-(2-(4-chloro-3,5-dimethyl-1H-pyrazol-1-yl)ethyl)-2-(3-cyano-2-methyl-1H-indol-1-yl)acetamide] | 1100 ± 71 | 1100 ± 72 | 940 ± 2.7 | > 50000 | 540 ± 54 | 3400 ± 320 | 6.3 | 4100 ± 450 | 7.6 | 5 | 4 | 4 | 25 (≈ 9.25 µg/mL) | 25 (≈ 9.25 µg/mL) | submaximal inhibition | 1500 ± 47 | EC50 ([2]; DD2, read-out: EC50, Dd2 Parent (clone G9)): 990 nM; EC50 ([5]; 3-selected Flask 1, after Pulse 2 (10×EC50)): 720 nM; EC50 ([5]; 3-selected Flask 1, after Pulse 3 (20×EC50)): 1200 nM; EC50 ([5]; 3-selected Flask 2, after Pulse 2 (10×EC50)): 840 nM; EC50 ([5]; 3-selected Flask 2, after Pulse 3 (20×EC50)): > 10000 nM; EC50 ([5]; 3-selected Flask 3, after Pulse 2 (10×EC50)): 1000 nM; EC50 ([5]; 3-selected Flask 3, after Pulse 3 (20×EC50)): > 10000 nM; EC50 ([5]; 3-selected Flask 4, after Pulse 2 (10×EC50)): 1100 nM; EC50 ([5]; 3-selected Flask 4, after Pulse 3 (20×EC50)): > 10000 nM; Time to Recrudescence ([9]; Pulse 4, 20×EC50, Flask #1): 6 days; Time to Recrudescence ([9]; Pulse 4, 20×EC50, Flasks 2 - 4): 2 days
